Patent US12012409B2, “Bicyclic heterocycles as FGFR inhibitors” (Incyte Corporation, priority 2020, dated 2024)

Legend:
Assay type in all cases: biochemical
Settings in all cases: wild-type un-phosphorylated protein; pre-incubated for 4 hours; ATP near or below Km
[1] = biological target: wild-type un-phosphorylated FGFR3 (Homo sapiens, UniProt P22607); assay: FGFR Enzymatic Assay (FRET peptide phosphorylation), FGFR3
Description: (§1) The inhibitor potency of the exemplified compounds was determined in an enzyme discontinuous assay that measures peptide phosphorylation using FRET measurements to detect product formation. Inhibitors were serially diluted in DMSO and a volume of 0.2 μL was transferred to the wells of a 384-well plate. […] Appropriate controls (enzyme blank and enzyme with no inhibitor) were included on the plate. […] The ATP Km values were pre-determined in a separate series of experiments. […] The plate was allowed to equilibrate for ˜10 minutes at ambient temperature before scanning on a PheraStar plate reader (BMG Labtech) instrument.
(§2) Either GraphPad prism or XLfit was used to analyze the data. The IC50 values were derived by fitting the data to a four parameter logistic equation producing a sigmoidal dose-response curve with a variable Hill coefficient. Prism equation: Y=Bottom+(Top−Bottom)/(1+10^((LogIC50−X)*Hill slope)); XLfit equation: Y=(A+((B−A)/(1+((X/C)^D)))) where X is the logarithm of inhibitor concentration and Y is the response.

[2] = biological target: wild-type un-phosphorylated FGFR1 (Homo sapiens, UniProt P11362); assay: FGFR Enzymatic Assay (FRET peptide phosphorylation), FGFR1
Description: as §1, §2

[3] = biological target: wild-type un-phosphorylated FGFR2 (Homo sapiens, UniProt P21802); assay: FGFR Enzymatic Assay (FRET peptide phosphorylation), FGFR2
Description: as §1, §2
The data in Table 1 was measured in wild-type un-phosphorylated FGFR1, FGFR2, FGFR3 and FGFR4 protein.

Chain of wild-type un-phosphorylated FGFR1 (P11362 22-822): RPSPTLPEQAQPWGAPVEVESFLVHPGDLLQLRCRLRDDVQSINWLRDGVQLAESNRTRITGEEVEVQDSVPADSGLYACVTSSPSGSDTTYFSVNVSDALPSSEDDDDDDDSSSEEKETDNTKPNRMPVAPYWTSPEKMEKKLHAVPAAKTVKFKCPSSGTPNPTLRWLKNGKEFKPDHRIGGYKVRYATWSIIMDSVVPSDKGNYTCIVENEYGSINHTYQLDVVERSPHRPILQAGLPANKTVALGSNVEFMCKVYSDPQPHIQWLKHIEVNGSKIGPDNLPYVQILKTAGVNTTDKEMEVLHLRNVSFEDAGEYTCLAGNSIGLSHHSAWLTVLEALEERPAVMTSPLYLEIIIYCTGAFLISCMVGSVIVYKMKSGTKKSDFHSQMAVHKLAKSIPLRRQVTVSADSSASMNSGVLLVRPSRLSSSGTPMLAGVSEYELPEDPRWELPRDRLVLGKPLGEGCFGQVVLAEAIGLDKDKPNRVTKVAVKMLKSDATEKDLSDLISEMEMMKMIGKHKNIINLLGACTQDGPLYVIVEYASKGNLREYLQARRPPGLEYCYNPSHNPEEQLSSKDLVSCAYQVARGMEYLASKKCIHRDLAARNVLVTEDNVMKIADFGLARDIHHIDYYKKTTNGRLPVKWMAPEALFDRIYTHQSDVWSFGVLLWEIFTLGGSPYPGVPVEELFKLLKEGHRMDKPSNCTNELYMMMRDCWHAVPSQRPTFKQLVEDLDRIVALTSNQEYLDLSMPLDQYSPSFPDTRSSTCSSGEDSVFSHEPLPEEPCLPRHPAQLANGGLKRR
Chain of wild-type un-phosphorylated FGFR2 (P21802 22-821): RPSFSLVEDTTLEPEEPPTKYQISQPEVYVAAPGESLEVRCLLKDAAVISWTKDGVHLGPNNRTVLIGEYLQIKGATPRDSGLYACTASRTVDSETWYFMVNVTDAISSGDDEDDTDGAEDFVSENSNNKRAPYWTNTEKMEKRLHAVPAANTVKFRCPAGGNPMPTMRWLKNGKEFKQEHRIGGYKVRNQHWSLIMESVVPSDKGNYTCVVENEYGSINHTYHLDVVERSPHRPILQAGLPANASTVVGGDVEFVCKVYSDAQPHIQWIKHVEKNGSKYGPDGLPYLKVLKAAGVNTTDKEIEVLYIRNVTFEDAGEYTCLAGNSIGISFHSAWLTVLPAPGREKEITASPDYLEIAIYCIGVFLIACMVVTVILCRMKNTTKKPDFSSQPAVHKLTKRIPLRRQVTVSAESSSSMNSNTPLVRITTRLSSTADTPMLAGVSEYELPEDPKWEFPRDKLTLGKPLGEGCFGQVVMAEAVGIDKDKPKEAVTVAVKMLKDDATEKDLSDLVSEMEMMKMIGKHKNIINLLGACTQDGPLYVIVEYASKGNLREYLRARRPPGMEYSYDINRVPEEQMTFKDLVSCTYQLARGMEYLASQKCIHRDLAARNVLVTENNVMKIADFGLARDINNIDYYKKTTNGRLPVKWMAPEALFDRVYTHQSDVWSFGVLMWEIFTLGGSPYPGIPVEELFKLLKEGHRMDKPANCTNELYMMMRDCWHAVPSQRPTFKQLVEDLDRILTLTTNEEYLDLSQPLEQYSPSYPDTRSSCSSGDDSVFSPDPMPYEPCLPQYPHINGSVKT
Chain of wild-type un-phosphorylated FGFR3 (P22607 23-806): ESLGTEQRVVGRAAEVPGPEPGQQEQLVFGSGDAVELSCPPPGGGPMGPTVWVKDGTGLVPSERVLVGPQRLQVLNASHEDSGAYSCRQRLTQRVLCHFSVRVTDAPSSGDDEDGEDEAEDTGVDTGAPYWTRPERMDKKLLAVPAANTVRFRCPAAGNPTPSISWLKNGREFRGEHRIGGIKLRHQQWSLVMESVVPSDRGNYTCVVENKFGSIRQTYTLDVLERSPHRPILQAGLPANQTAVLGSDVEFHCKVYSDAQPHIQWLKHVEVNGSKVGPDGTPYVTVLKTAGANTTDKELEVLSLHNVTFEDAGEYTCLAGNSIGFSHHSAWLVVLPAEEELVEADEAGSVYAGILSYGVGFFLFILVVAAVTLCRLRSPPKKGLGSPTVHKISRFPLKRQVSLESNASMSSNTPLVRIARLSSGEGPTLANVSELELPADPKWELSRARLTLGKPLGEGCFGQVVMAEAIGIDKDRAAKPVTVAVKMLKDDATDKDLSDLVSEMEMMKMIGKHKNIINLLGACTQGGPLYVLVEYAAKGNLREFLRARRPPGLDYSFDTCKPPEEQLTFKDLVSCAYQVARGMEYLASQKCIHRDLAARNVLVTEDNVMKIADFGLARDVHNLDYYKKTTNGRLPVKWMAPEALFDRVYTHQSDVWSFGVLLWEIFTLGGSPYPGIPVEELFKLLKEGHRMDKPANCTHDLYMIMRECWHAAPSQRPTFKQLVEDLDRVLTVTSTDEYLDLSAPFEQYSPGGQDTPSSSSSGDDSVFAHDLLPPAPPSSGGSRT

Row | Structure (SMILES) | IC50 [1] [nM] | IC50 [2] [nM] | IC50 [3] [nM]
1 | CC(C)(O)Cn1cc(-c2cc3ncc(-c4cccc(-c5ccc(F)cc5F)c4)n3nc2O[C@H]2CCOC2)cn1 [Example 48, (S)-1-(4-(3-(2′,4′-Difluoro-[1,1′-biphenyl]-3-yl)-6-((tetrahydrofuran-3-yl)oxy)imidazo[1,2-b]pyridazin-7-yl)-1H-pyrazol-1-yl)-2-methylpropan-2-ol] | 10 to 100 | 10 to 100 | 10 to 100
2 | CNC(=O)c1cc(CN2CCCC2)c(F)c(-c2cnc3cc(-c4cnn(C)c4)c(O[C@H]4CCOC4)nn23)c1 [Example 45, (S)-4-Fluoro-N-methyl-3-(7-(1-methyl-1H-pyrazol-4-yl)-6-((tetrahydrofuran-3-yl)oxy)imidazo[1,2-b]pyridazin-3-yl)-5-(pyrrolidin-1-ylmethyl)benzamide] | 10 to 100 | 10 to 100 | 10 to 100
3 | CC(C)n1cc(-c2cc3ncc(-c4ccc5c(c4)C(=O)NC5)n3nc2O[C@H]2CCOC2)cn1 [Example 77, (S)-6-(7-(1-Isopropyl-1H-pyrazol-4-yl)-6-((tetrahydrofuran-3-yl)oxy)imidazo[1,2-b]pyridazin-3-yl)isoindolin-1-one] | 10 to 100 | ≥ 400 | 10 to 100
4 | CNC(=O)c1cc(-c2cnc3cc(-c4cnn5ccccc45)c(O[C@H]4CCOC4)nn23)c(F)c(C(F)F)c1 [Example 27, (S)-3-(Difluoromethyl)-4-fluoro-N-methyl-5-(7-(pyrazolo[1,5-a]pyridin-3-yl)-6-((tetrahydrofuran-3-yl)oxy)imidazo[1,2-b]pyridazin-3-yl)benzamide] | 10 to 100 | 10 to 100 | 10 to 100
5 | CNC(=O)c1cc(-c2cnc3cc(-c4ccc(C(=O)NC)c(F)c4)c(O[C@H]4CCOC4)nn23)c(F)c(C(F)F)c1 [Example 36, (S)-3-(Difluoromethyl)-4-fluoro-5-(7-(3-fluoro-4-(methylcarbamoyl)phenyl)-6-((tetrahydrofuran-3-yl)oxy)imidazo[1,2-b]pyridazin-3-yl)-N-methylbenzamide] | 10 to 100 | 100 to 400 | 10 to 100
6 | CNC(=O)c1cc(F)c(F)c(-c2cnc3cc(-c4ccc(C)nc4)c(O[C@H]4CCOC4)nn23)c1 [Example 21, (S)-3,4-Difluoro-N-methyl-5-(7-(6-methylpyridin-3-yl)-6-((tetrahydrofuran-3-yl)oxy)imidazo[1,2-b]pyridazin-3-yl)benzamide] | < 10 | 100 to 400 | 10 to 100
7 | CNC(=O)c1cncc(-c2cnc3cc(-c4ccc(N5CCN(C)CC5)cc4)c(O[C@H]4CCOC4)nn23)c1 [Example 68, (S)—N-Methyl-5-(7-(4-(4-methylpiperazin-1-yl)phenyl)-6-((tetrahydrofuran-3-yl)oxy)imidazo[1,2-b]pyridazin-3-yl)nicotinamide] | < 10 | 10 to 100 | 10 to 100
8 | CNC(=O)c1cc(-c2cnc3cc(-c4ccc(C)c(C#N)c4)c(O[C@H]4CCOC4)nn23)c(F)c(C(F)F)c1 [Example 31, (S)-3-(7-(3-Cyano-4-methylphenyl)-6-((tetrahydrofuran-3-yl)oxy)imidazo[1,2-b]pyridazin-3-yl)-5-(difluoromethyl)-4-fluoro-N-methylbenzamide] | 10 to 100 | ≥ 400 | 10 to 100
9 | CNC(=O)c1cc(F)c(F)c(-c2cnc3cc(-c4ccncc4)c(O[C@H]4CCOC4)nn23)c1 [Example 72, (S)-3,4-Difluoro-N-methyl-5-(7-(pyridin-4-yl)-6-((tetrahydrofuran-3-yl)oxy)imidazo[1,2-b]pyridazin-3-yl)benzamide] | < 10 | 100 to 400 | 10 to 100
10 | CNC(=O)c1cc(F)c(F)c(-c2cnc3cc(-c4cnn(C5CCS(=O)(=O)C5)c4)c(O[C@H]4CCOC4)nn23)c1 (stereo partly drawn) [Example 69, 3-(7-(1-(1,1-Dioxidotetrahydrothiophen-3-yl)-1H-pyrazol-4-yl)-6-(((S)-tetrahydrofuran-3-yl)oxy)imidazo[1,2-b]pyridazin-3-yl)-4,5-difluoro-N-methylbenzamide] | < 10 | 10 to 100 | < 10
11 | CNC(=O)c1cc(-c2cnc3cc(-c4ccc(N5CCCC5=O)nc4)c(O[C@H]4CCOC4)nn23)c(F)c(C(F)F)c1 [Example 33, (S)-3-(Difluoromethyl)-4-fluoro-N-methyl-5-(7-(6-(2-oxopyrrolidin-1-yl)pyridin-3-yl)-6-((tetrahydrofuran-3-yl)oxy)imidazo[1,2-b]pyridazin-3-yl)benzamide] | < 10 | 100 to 400 | 10 to 100
12 | CC(C)n1cc(-c2cc3ncc(-c4cccc(F)c4F)n3nc2O[C@H]2CCOC2)cn1 [Example 46, (S)-3-(2,3-Difluorophenyl)-7-(1-isopropyl-1H-pyrazol-4-yl)-6-((tetrahydrofuran-3-yl)oxy)imidazo[1,2-b]pyridazine] | 10 to 100 | 100 to 400 | 10 to 100
13 | CNC(=O)c1cncc(-c2cnc3cc(-c4ccc(NC(=O)OC)cc4)c(O[C@H]4CCOC4)nn23)c1 [Example 67, Methyl (S)-(4-(3-(5-(Methylcarbamoyl)pyridin-3-yl)-6-((tetrahydrofuran-3-yl)oxy)imidazo[1,2-b]pyridazin-7-yl)phenyl)carbamate] | 10 to 100 | 100 to 400 | 10 to 100
14 | CNC(=O)c1cc(-c2cnc3cc(-c4ccc(N5CCCC5)nc4)c(O[C@H]4CCOC4)nn23)c(F)c(C(F)F)c1 [Example 32, (S)-3-(Difluoromethyl)-4-fluoro-N-methyl-5-(7-(6-(pyrrolidin-1-yl)pyridin-3-yl)-6-((tetrahydrofuran-3-yl)oxy)imidazo[1,2-b]pyridazin-3-yl)benzamide] | < 10 | 100 to 400 | < 10
15 | CNC(=O)c1cc(F)c(F)c(-c2cnc3cc(-c4cnn(C)c4)c(OCCOC)nn23)c1 [Example 20, 3,4-Difluoro-5-(6-(2-methoxyethoxy)-7-(1-methyl-1H-pyrazol-4-yl)imidazo[1,2-b]pyridazin-3-yl)-N-methylbenzamide] | < 10 | 10 to 100 | < 10

Results, then the compound that gave them:

Row | IC50 [1] [nM] | IC50 [2] [nM] | IC50 [3] [nM] | Structure (SMILES)
16 | < 10 | 10 to 100 | < 10 | CNC(=O)c1cc(-c2cnc3cc(-c4cnn(C(C)(C)C#N)c4)c(O[C@H]4CCOC4)nn23)c(F)c(C(F)F)c1 [Example 26, (S)-3-(7-(1-(2-Cyanopropan-2-yl)-1H-pyrazol-4-yl)-6-((tetrahydrofuran-3-yl)oxy)imidazo[1,2-b]pyridazin-3-yl)-5-(difluoromethyl)-4-fluoro-N-methylbenzamide]
17 | < 10 | < 10 | < 10 | CNC(=O)c1cc(F)c(F)c(-c2cnc3cc(-c4cnn(CCN5CCCC5=O)c4)c(O[C@H]4CCOC4)nn23)c1 [Example 75, (S)-3,4-Difluoro-N-methyl-5-(7-(1-(2-(2-oxopyrrolidin-1-yl)ethyl)-1H-pyrazol-4-yl)-6-((tetrahydrofuran-3-yl)oxy)imidazo[1,2-b]pyridazin-3-yl)benzamide]
18 | < 10 | < 10 | < 10 | CNC(=O)c1cc(F)c(F)c(-c2cnc3cc(-c4cnn(C5CCN(C(=O)N(C)C)CC5)c4)c(O[C@H]4CCOC4)nn23)c1 [Example 73, (S)-4-(4-(3-(2,3-Difluoro-5-(methylcarbamoyl)phenyl)-6-((tetrahydrofuran-3-yl)oxy)imidazo[1,2-b]pyridazin-7-yl)-1H-pyrazol-1-yl)-N,N-dimethylpiperidine-1-carboxamide]
19 | < 10 | < 10 | < 10 | CNC(=O)c1cc(F)c(F)c(-c2cnc3cc(-c4cnn(C5CCC5)c4)c(O[C@H]4CCOC4)nn23)c1 [Example 25, (S)-3-(7-(1-Cyclobutyl-1H-pyrazol-4-yl)-6-((tetrahydrofuran-3-yl)oxy)imidazo[1,2-b]pyridazin-3-yl)-4,5-difluoro-N-methylbenzamide]
20 | < 10 | 100 to 400 | < 10 | CNC(=O)c1cc(F)c(F)c(-c2cnc3cc(-c4cnn(-c5ccccn5)c4)c(O[C@H]4CCOC4)nn23)c1 [Example 70, (S)-3,4-Difluoro-N-methyl-5-(7-(1-(pyridin-2-yl)-1H-pyrazol-4-yl)-6-((tetrahydrofuran-3-yl)oxy)imidazo[1,2-b]pyridazin-3-yl)benzamide]
21 | < 10 | 100 to 400 | 10 to 100 | CNC(=O)c1cc(CC#N)c(F)c(-c2cnc3cc(-c4cnn(C)c4)c(O[C@H]4CCOC4)nn23)c1 [Example 44, (S)-3-(Cyanomethyl)-4-fluoro-N-methyl-5-(7-(1-methyl-1H-pyrazol-4-yl)-6-((tetrahydrofuran-3-yl)oxy)imidazo[1,2-b]pyridazin-3-yl)benzamide]
22 | < 10 | < 10 | < 10 | CNC(=O)c1cc(F)c(F)c(-c2cnc3cc(-c4cnn(C5CCN(C(C)=O)CC5)c4)c(O[C@H]4CCOC4)nn23)c1 [Example 74, (S)-3-(7-(1-(1-Acetylpiperidin-4-yl)-1H-pyrazol-4-yl)-6-((tetrahydrofuran-3-yl)oxy)imidazo[1,2-b]pyridazin-3-yl)-4,5-difluoro-N-methylbenzamide]
